Results taken from US20120302609A1, “Pyrazolines for the Modulation of PKM2” (Dynamix Pharmaceuticals LTD., priority 2011, published 2012).

Experiments:
[1] = tested on: H1299 (Non-small cell lung carcinoma cell line); assay: Cell proliferation index assay, Assay Protocol II (Fluofarma, flow cytometry); assay type: cell-based; conditions: Homo sapiens, NCI-H1299
Procedure: In a second assay to determine the inhibition of cell proliferation by a test compound, cell proliferation of the cell line of interest was measured by a cell proliferation index assay using Fluofarma (www.fluofarma.com) based technology. This assay is based on the dilution rate of a fluorescent membrane marker, which is a direct function of the number of cell divisions. Briefly, the assay is performed by loading the cells with a non-toxic fluorescent phospholipid analog before the seeding. […] Flow cytometry analysis of the fluorescent probe is performed after the loading of the cells both prior to, as well as after treatment with various concentrations of the test compound. The dilution rate of the fluorescent probe at the single cell level is directly correlated to the number of cell divisions.

[2] = tested on: HT-29 cells (a colorectal cancer cell line); assay: Combination with 5-FU on HT-29 cells; assay type: cell-based, human; conditions: FIG. 5
H1299 cells = assay: Cell cycle analysis; assay type: cell-based, human; conditions: 48 hours, FIG. 6
DU145 (prostate) = assay: Cell proliferation assay (CellTiter-Glo Luminescent); assay type: cell-based; conditions: Homo sapiens, DU-145, Complete media, 96 hr
HT-29 (colon) = assay: Cell proliferation assay (XTT or CellTiter-Glo); assay type: cell-based; conditions: Homo sapiens
Procedure: Day 0 Cells were seeded at 3000 cells/well in 100 μl full media in 96-well culture plates (60 wells/plate, external wells filled with 100 μl PBS) and incubated overnight. • Day 1 On the following day, full media was changed to the tested media and compounds were added in 0.5% DMSO final. • Day 2-5 Cells were incubated over 72 hr. • Day 5 Cell proliferation was assessed using XTT proliferation assay as follows:
The assay is based on the ability of metabolic active cells to reduce the tetrazolium salt XTT to orange colored compounds of formazan. The dye formed is water soluble and the dye intensity can be read at a given wavelength with a spectrophotometer. […] The use of multiwell plates and an ELISA reader enables testing a large number of samples and obtaining easy and rapid results. […] During incubation an orange color is formed, the intensity of which can be measured with a spectrophotometer, in this instance with an ELISA reader. The greater the number of active cells in the well, the greater the activity of mitochondria enzymes, and the higher the concentration of the dye formed, which can then be measured and quantitated.
• 1. […] The absorbance of the samples was measured against a background control as a blank (see 7) with a spectrophotometer (ELISA reader) at a wavelength of 450-500 nanometer. […] The average absorbance of the blank control wells was subtracted from that of the other wells. […]

PKM1 = PKM1 (Homo sapiens, UniProt P14618); assay: Isoform selectivity of pyruvate kinases; assay type: biochemical
PKR = PKR (Homo sapiens, UniProt P30613); assay: Isoform selectivity of pyruvate kinases; assay type: biochemical
PKR, sequence (P30613 whole entry, canonical isoform): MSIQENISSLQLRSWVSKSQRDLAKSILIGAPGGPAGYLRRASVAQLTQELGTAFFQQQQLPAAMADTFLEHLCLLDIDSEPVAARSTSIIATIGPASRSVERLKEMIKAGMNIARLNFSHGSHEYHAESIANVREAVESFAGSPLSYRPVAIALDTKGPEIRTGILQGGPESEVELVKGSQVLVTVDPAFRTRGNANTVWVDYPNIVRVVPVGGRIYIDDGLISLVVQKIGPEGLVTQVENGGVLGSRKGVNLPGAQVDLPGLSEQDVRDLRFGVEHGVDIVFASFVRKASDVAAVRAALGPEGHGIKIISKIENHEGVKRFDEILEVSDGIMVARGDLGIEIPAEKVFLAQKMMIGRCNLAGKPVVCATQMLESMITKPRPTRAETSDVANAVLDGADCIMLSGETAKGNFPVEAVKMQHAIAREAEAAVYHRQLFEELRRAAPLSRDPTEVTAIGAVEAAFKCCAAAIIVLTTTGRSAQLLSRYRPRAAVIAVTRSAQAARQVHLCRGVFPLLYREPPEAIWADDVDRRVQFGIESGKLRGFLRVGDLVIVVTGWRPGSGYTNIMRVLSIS

PKM1, sequence (P14618 1-531 isoform P14618-2): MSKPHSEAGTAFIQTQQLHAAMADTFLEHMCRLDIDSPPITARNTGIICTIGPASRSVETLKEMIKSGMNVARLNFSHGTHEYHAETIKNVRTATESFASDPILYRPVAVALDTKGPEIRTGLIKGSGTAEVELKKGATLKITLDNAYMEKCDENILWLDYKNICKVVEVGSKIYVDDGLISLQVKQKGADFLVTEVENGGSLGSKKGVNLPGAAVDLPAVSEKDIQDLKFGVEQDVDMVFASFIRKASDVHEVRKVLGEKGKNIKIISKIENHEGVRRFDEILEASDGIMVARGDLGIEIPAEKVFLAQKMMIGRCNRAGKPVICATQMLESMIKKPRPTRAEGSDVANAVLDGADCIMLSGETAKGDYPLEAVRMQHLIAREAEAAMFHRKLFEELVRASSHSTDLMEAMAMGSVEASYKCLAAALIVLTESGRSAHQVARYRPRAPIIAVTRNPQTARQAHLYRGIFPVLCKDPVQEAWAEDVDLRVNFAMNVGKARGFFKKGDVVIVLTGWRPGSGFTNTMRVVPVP

Structure (SMILES) | IC50 [1] [µM] | effect in combination with 5-FU [2] | cell cycle analysis (H1299 cells) | AC50 (DU145 (prostate)) [µM] | AC50 (HT-29 (colon); 1 mM glucose, Assay duration: 72 hours, Readout: XTT) [µM] | AC50 (HT-29 (colon); Complete media, 96 hr, CellTiter-Glo) [µM] | AC50 (PKM1) | AC50 (PKR) [µM]
CCS(=O)(=O)Nc1ccc(C2=NN(C(C)=O)C(c3ccc(OC)cc3)C2)cc1 (racemic) [Compound 1A, N-(4-(1-acetyl-5-(4-methoxyphenyl)-4,5-dihydro-1H-pyrazol-3-yl)phenyl)ethanesulfonamide] | 40 to 100 | at least additive | – | – | – | – | – | –
COc1ccc([C@@H]2CC(c3ccc(NS(=O)(=O)c4ccc(F)cc4)cc3)=NN2C(C)=O)cc1 [Compound 13A, (S)—N-(4-(1-acetyl-5-(4-methoxyphenyl)-4,5-dihydro-1H-pyrazol-3-yl)phenyl)-4-fluorobenzenesulfonamide] | – | – | most cells were arrested at the G1/S phase | 10 to 20 | 3 to 10 | 10 to 20 | Not active | > 30
